Common to all, as to format: cell-based, canine
Assay [1] deals with OA-Associated Genes. Description: Microarray analysis of chondrocyte beads treated with 1,25 D3 or 24,25 D3. The settings on record: summary statement, Tables 19-20. An excerpt: Microarray probes were generated by PCR-amplifying clones isolated from differential display. Probes were spotted in duplicate onto poly-L-lysine coated slides using a GMS417 (Affymetrix) arrayer. Osteoarthritic cartilage samples were obtained from the femoral heads of clinically diagnosed canines undergoing total […] replacement. RNA was hybridized to the slides using the HC ExpressArray ([…]) kit and visualized using a GMS418 (Affymetrix) scanner. The […] (Biodiscovery) program was used for spot finding and subsequent data analysis was performed using GeneSight (Biodiscovery). Expression levels are represented after background subtraction, log(base 2) transformation and global slide signal normalization. […] Scanned images representing RNA transcripts bound to specific clones were quantified and checked for spot quality control using […] analysis software (BioDiscovery). Quantified images were analyzed using […] analysis software (BioDiscovery). The analysis represented subtraction of background surrounding the spots, averaging spot replicates, deletion of clone information representing clone hybridization signals not greater than 200 above background on all samples, log (base 2) transformation and global normalization of each slide (values expressed as percent of average spot intensity). […]

Assay [2] relates to OA-Associated Genes. Description: Microarray analysis of chondrocyte beads treated with glucosamine. The conditions noted are these: summary statement, Tables 13-18. An excerpt:
(§1) Microarray probes were generated by PCR-amplifying clones isolated from differential display. Probes were spotted in duplicate onto poly-L-lysine coated slides using a GMS417 (Affymetrix) arrayer. Osteoarthritic cartilage samples were obtained from the femoral heads of clinically diagnosed canines undergoing total […] replacement. RNA was hybridized to the slides using the HC ExpressArray (Digene) kit and visualized using a GMS418 (Affymetrix) scanner. The Imagene (Biodiscovery) program was used for spot finding and subsequent data analysis was performed using GeneSight (Biodiscovery). Expression levels are represented after background subtraction, log(base 2) transformation and global slide signal normalization. […]
(§2) Scanned images representing RNA transcripts bound to specific clones were quantified and checked for spot quality control using Imagene analysis software (BioDiscovery). Quantified images were analyzed using Genesight analysis software (BioDiscovery). The analysis represented subtraction of background surrounding the spots, averaging spot replicates, deletion of clone information representing clone hybridization signals not greater than 200 above background on all samples, log (base 2) transformation and global normalization of each slide (values expressed as percent of average spot intensity). […]

Assay [3] has as its system OA-Associated Genes. Description: Microarray analysis of chondrocytes enriched with EPA or AA. The conditions noted are these: summary statement, Tables 21-23.
Description: as §1, §2

Assay [4] deals with OA-Associated Genes. As to the kind of experiment: Microarray analysis of chondrocyte beads treated with chondroitin sulfate. The conditions noted are these: summary statement, Tables 7-12.
Description: as §1, §2

With `C=C1/C(=C\C=C2/CCC[C@]3(C)[C@@H]([C@H](C)CCCC(C)(C)O)CC[C@@H]23)C[C@@H](O)C[C@@H]1O` [1α,25-dihydroxyvitamin D3], the “effect on expression of OA-related genes” value in the assay with OA-Associated Genes [1] is recorded as “affected the expression of OA-related genes”.

Turning to `C=C1CC[C@H](O)C/C1=C/C=C1\CCC[C@]2(C)[C@@H]([C@H](C)CC[C@@H](O)C(C)(C)O)CC[C@@H]12` [24R,25-dihydroxyvitamin D3], the “effect on expression of OA-related genes” value with OA-Associated Genes [1] is given as “affected the expression of OA-related genes”.

`N[C@H]1C(O)O[C@H](CO)[C@@H](O)[C@@H]1O` (some centres unmarked) [Glucosamine, glucosamine]: the “effect on OA-associated genes” value with OA-Associated Genes [2] is “have an effect on a variety of OA-associated genes”.

Turning to `CCCCC/C=C\C/C=C\C/C=C\C/C=C\CCCC(=O)O` [arachidonic acid (AA), arachidonic acid], the “effect on OA-related genes” value in the assay with OA-Associated Genes [3] is given as “affect OA-related genes”.

Regarding chondroitin sulfate, in the assay with OA-Associated Genes [4], the “effect on OA-associated genes” value is recorded as “have an effect on a wide variety of OA-associated genes”.

The values are drawn from patent publication US8420312B2, “Genes associated with canine osteoarthritis and related methods and compositions” (Nestec S.A., priority 2004, dated 2013).
